Measured values reported in US20100137266A1, “TREATMENT OF INSULIN RESISTANCE AND DISORDERS ASSOCIATED THEREWITH” (UNIVERSITETET I OSLO, priority 2006, published 2010).

Experiments:
human myotubes = test: Lipogenesis and lipid distribution: acetate incorporation into FFA, DAG and TAG in myotubes; type: cell-based; conditions: compared to control myotubes; for FFA synthesis from labeled acetate, increase / level of TAG from labeled acetate: 1 μM T0901317 or 10 μM 22-HC for 4 days; for level of DAG from labeled acetate: 1 μM T0901317 or 10 μM 22-R-HC for 4 days
Description: Human myoblasts were differentiated and treated with LXR ligands as described in FIG. 3. The cells were then incubated with [1-^14C]acetate (2 μCi/ml, 0.1 mM) for 4 h before levels of free fatty acids (FFA), diacylglycerol (DAG) and triacylgycerol (TAG) were determined. Results present means±SEM (n=5; independent muscle cell donors). **p<0.05 vs all other treatments, ^#p<0.05 vs T0901317. Human skeletal muscle cell cultures. […] The biopsies were obtained with informed consent and by approval of the National Committee for Research Ethics, Oslo, Norway. Muscle cell cultures free of fibroblasts were established by the method of Henry et al. (Diabetes, 44, 936-946, 1995), with minor modifications. Briefly, muscle tissue was dissected in Ham's F-10 media at 4° C., dissociated by three successive treatments with 0.05% trypsin/EDTA, and satellite cells were re-suspended in SkGM with 2% FCS and no added insulin. The cells were grown on culture wells coated with ECM gel (Apmis, 109, 726-734, 2001). At about 80% confluence, fusion of myoblasts into multinucleated myotubes was achieved by growth in DMEM with 2% FCS. All cells used were at passage 4 to 6. After 2 days in DMEM the cells were exposed to vehicle (0.1% DMSO), 1 μM T0901317, 10 μ[…]-hydroxycholesterol (22-R-HC) or 10 μ[…]-hydroxycholesterol (22-S-HC) for 4 days. Lipogenesis and lipid distribution. Myotubes were exposed to DMEM supplemented with [1-^14C]acetic acid (2 μCi/ml, 0.1 mM) for 4 h to study lipogenesis and acetate incorporation into TAG and diacylglycerol (DAG). Myotubes were harvested and analyzed as described above (Palmitate uptake and lipid distribution).

LXR target genes = test: Gene expression of LXR target genes in myotubes by Real-Time RT-PCR; type: cell-based, human; conditions: for expression of LXRα, increase / expression of SREBP1c, increase: mRNA normalized to 36B4; for mRNA expression of CD36, FAS, ACSL1 and SCD-1 compared to T0901317: 10 μM for 4 days vs 1 μM T0901317; for mRNA expression of ACSL1, increase / mRNA expression of FAS, increase / mRNA expression of SCD-1, increase / mRNA expression of fatty acid transporter CD36, increase: 1 μM T0901317 or 10 μM 22-R-HC for 4 days
Source text: FIG. 5. Effects of 22-hydroxycholesterols on expression of LXR target genes in human myotubes. Human myoblasts were differentiated and treated with LXR ligands as described in FIG. 3. Total RNA were isolated from the cells, reversely transcribed and analyzed by Real-Time RT-PCR. Results are normalized to levels of 36B4 and present means±SEM (n=4-6; independent muscle cell donors). Relative expressions of (A) liver X receptor […], LXRβ, and sterol regulatory element-binding protein (SREBP)1c, (B) ATP-binding cassette transporter (ABC)A1 (C) acyl-CoA synthetase long chain family member 1 (ACSL1), fatty acid transporter (CD36), fatty acid synthase (FAS), and stearoyl-CoA desaturase (SCD)-1. *p<0.05 vs control, **p<0.05 vs all other treatments.
Human skeletal muscle cell cultures. A cell bank of satellite cells was established from muscle biopsy samples of the M. vastus lateralis of 6 healthy volunteers, age 25.7 years (±1.4), with BMI 21.6 (±1.0) and fasting glucose and insulin within normal range. The biopsies were obtained with informed consent and by approval of the National Committee for Research Ethics, Oslo, Norway. Muscle cell cultures free of fibroblasts were established by the method of Henry et al. (Diabetes, 44, 936-946, 1995), with minor modifications. Briefly, muscle tissue was dissected in Ham's F-10 media at 4° C., dissociated by three successive treatments with 0.05% trypsin/EDTA, and satellite cells were re-suspended in SkGM with 2% FCS and no added insulin. The cells were grown on culture wells coated with ECM gel (Apmis, 109, 726-734, 2001). At about 80% confluence, fusion of myoblasts into multinucleated myotubes was achieved by growth in DMEM with 2% FCS. All cells used were at passage 4 to 6. After 2 days in DMEM the cells were exposed to vehicle (0.1% DMSO), 1 μM T0901317, 10 μM 22-R-hydroxycholesterol (22-R-HC) or 10 μM 22-S-hydroxycholesterol (22-S-HC) for 4 days.
RNA isolation and analysis of gene expression by RT-PCR. Myotubes were washed, trypsinized and pelleted before total RNA was isolated by RNeasy Mini kit (Qiagen Sciences, Oslo, Norway) or Agilent Total RNA Mini kit (Matrix, Oslo, Norway) according to the suppliers total RNA isolation protocol. RNA samples were incubated with RNase-free DNase (Qiagen Sciences) for minimum 15 min in an additional step during the RNA isolation procedure. Total RNA (1 μg/μl) was reversely transcribed with hexamere primers using a Perkin-Elmer Thermal Cycler 9600 (25° C. for 10 min, 37° C. for 1 h, 99° C. for 5 min) and a TaqMan reverse-transcription reagents kit (Applied Biosystems). Real time PCR was performed using an ABI PRISM® 7000 Detection System. DNA expression was determined by SYBR® Green (Applied Biosystems), and primers [36B4 (Acc#M17885), ACSL1 (Acc#NM_001995), ABCA1 (Acc#AF165281), CD36 (Acc#L06850), FAS (Acc#U26644), GAPDH (Acc#J104038/M33197, GLUT4 (Acc#M20747), LXRα (Acc#U22662), LXR (Acc#U07132), Myogenin (Acc#X17651), MyoD (Acc#BC064493), PPARα (Acc#L02932), PPARδ (Acc#BC002715), PPARγ (Acc#L40904), SCD-1 (Acc#AB032261), SREBP1c (Acc#U00968)], GLUT1, (Acc#03195), GLUT3 (Acc#M20681), HKII (Acc#AF148513) were designed using Primer Express® (Applied Biosystems). Each target gene was quantified in triplicates and carried out in a 25 μl reaction volume according to the suppliers protocol. All assays were run for 40 cycles (95° C. for 12 s followed by 60° C. for 60 s). The transcription levels were normalized to the housekeeping control genes 36B4 and GAPDH.

[1] = 1 μM T0901317 or 10 μM 22-HC for 4 days
[2] = 10 μM chronic treatment (4 days)

## CC(C)CC[C@H](O)[C@@H](C)[C@H]1CC[C@H]2[C@@H]3CC=C4C[C@@H](O)CC[C@]4(C)[C@H]3CC[C@]12C [Example 22-S-HC, 22-S-hydroxycholesterol]
Human myotubes
  FFA synthesis from labeled acetate, increase: only tended to increase FFA synthesis slightly
  level of TAG from labeled acetate: tendency towards reduced TAG
Human myotubes; 10 μM for 4 days
  reduction for DAG from labeled acetate: ~50%
LXR target genes; [1]
  expression level of ABCA1, increase: very slightly (but insignificantly)
  expression level of LXRbeta: None of the genes described in FIG. 5A-B were significantly affected
  expression of LXRα, increase: None of the genes described in FIG. 5A-B were significantly affected
  expression of SREBP1c, increase: None of the genes described in FIG. 5A-B were significantly affected
LXR target genes; [2]
  ACSL1 mRNA expression, down-regulation: 50-80%
  CD36 mRNA expression, down-regulation: 50-80%
  SCD-1 mRNA expression, down-regulation: 50-80%
LXR target genes
  mRNA expression of CD36, FAS, ACSL1 and SCD-1 compared to T0901317: significantly reduced

## CC(C)CC[C@@H](O)[C@@H](C)[C@H]1CC[C@H]2[C@@H]3CC=C4C[C@@H](O)CC[C@]4(C)[C@H]3CC[C@]12C [Example 22-R-HC, 22-R-hydroxycholesterol]
Human myotubes
  FFA synthesis from labeled acetate, increase: 3 fold
  level of TAG from labeled acetate: slight increase
  level of DAG from labeled acetate: did not change
LXR target genes; [1]
  expression level of ABCA1, increase: 17 fold
  expression of LXRα, increase: 2-3 fold
  expression of SREBP1c, increase: 2-3 fold
LXR target genes
  mRNA expression of ACSL1, increase: unaffected
  mRNA expression of FAS, increase: unaffected
  mRNA expression of SCD-1, increase: unaffected
  mRNA expression of fatty acid transporter CD36, increase: unaffected
  mRNA expression of CD36, FAS, ACSL1 and SCD-1 compared to T0901317: significantly reduced

## O=S(=O)(c1ccccc1)N(CC(F)(F)F)c1ccc(C(O)(C(F)(F)F)C(F)(F)F)cc1 [Example T0901317]
Human myotubes
  FFA synthesis from labeled acetate, increase: 2 fold
  level of TAG from labeled acetate: increased TAG
  level of DAG from labeled acetate: increased levels of DAG
LXR target genes; [1]
  expression level of ABCA1, increase: 14 fold
  expression of LXRα, increase: 4-5 fold
  expression of SREBP1c, increase: 4-5 fold
LXR target genes
  mRNA expression of ACSL1, increase: 5 fold
  mRNA expression of FAS, increase: 4 fold
  mRNA expression of SCD-1, increase: 10 fold
  mRNA expression of fatty acid transporter CD36, increase: 2 fold
